The source of these data is ChEMBL document CHEMBL1201862, “PubChem BioAssay data set” (2004).

SMILES strings stand for the structures.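 Where inhibition never reached the appropriate level, the endpoint shown equals the highest concentration tested. Otherwise, values were interpolated linearly from a five-concentration, 48-hour dose response in 96-well plates. Here, GI50 denotes the concentration required for 50% inhibition of growth.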 Calls of active or inactive are those of the source. No stated cut-off is given here; in the data, active = GI50 up to about 1.1 µM and inactive = higher. Some results are limits rather than exact numbers.

Experiment in all cases: NCI-60 cell line screen, 48 h
The test system of assay [1] is CCRF-CEM.
The test system of assay [2] is SK-MEL-2.
The subject of assay [3] is MOLT-4.
For assay [4], the system named is UO-31.
For assay [5], the system named is KM12.
In assay [6] the test system is HT-29.
Assay [7] has as its system U-251.
Assay [8] has as its system RXF 393.
Assay [9] deals with OVCAR-5.
Assay [10] has as its system SK-MEL-28.
Assay [11] relates to SK-OV-3.
Assay [12] concerns NCI-H23.
For assay [13], the system named is UACC-62.
Assay [14] concerns HOP-62.
Assay [15] has as its system IGROV-1.
The subject of assay [16] is OVCAR-8.
The subject of assay [17] is SN12C.
For assay [18], the system named is SW-620.
The subject of assay [19] is SK-MEL-5.
The subject of assay [20] is SF-295.

For the molecule `CC1CN=C(Nc2cccc(C(F)(F)F)c2)S1` (configuration not stated), the GI50 in [1] is 31.9 µM (inactive); in assay [2], 77.6 µM (inactive); in assay [3], 25.4 µM (inactive); in assay [4], 27.5 µM (inactive); in assay [5] it was 81.5 µM (inactive); in [6], 78.7 µM (inactive). Further, the GI50 in assay [7] was 54.7 µM (inactive); in assay [8], 42.9 µM (inactive); in assay [9] it was > 100 µM (inactive); in [10], > 100 µM (inactive); in assay [11], 94.4 µM (inactive); in [12], 36.1 µM (inactive). Besides, the GI50 in [13] is 97.3 µM (inactive); in assay [14] it was 95.3 µM (inactive).
Turning to `O=[N+]([O-])c1cc2ncc(-c3ccccc3)c(O)c2cc1/C(Cl)=C/c1ccccc1`, the GI50 is 4.43 µM (inactive) in assay [1]; 32.6 µM (inactive) in assay [2]; 6.85 µM (inactive) in [3]; 9.89 µM (inactive) in assay [4]; 9.12 µM (inactive) in assay [5]; 5.83 µM (inactive) in assay [15]. The GI50 in assay [6] was 13.4 µM (inactive); in assay [7], 6.5 µM (inactive); in assay [8], 8.17 µM (inactive); in assay [9], > 44.7 µM (inactive); in assay [16] it was 5.6 µM (inactive); in assay [10], 17.2 µM (inactive). Also, the GI50 was 27.1 µM (inactive) in assay [11]; 14.2 µM (inactive) in [17]; 6.71 µM (inactive) in [18]; 7.67 µM (inactive) in [12]; 6.97 µM (inactive) in assay [13]; 16.3 µM (inactive) in assay [14]. Besides, the GI50 in assay [19] is 5.04 µM (inactive); in assay [20], 6.65 µM (inactive).
As for `CC(C)(C)[Si](OC1CC(n2cnc3c(N)ncnc32)OC1CO)(c1ccccc1)c1ccccc1` (configuration not stated), the GI50 in assay [1] was 12.9 µM (inactive); in assay [2] it was 18.8 µM (inactive); in assay [3] it was 20.7 µM (inactive); in assay [4] it was 23.7 µM (inactive); in assay [5], 19.8 µM (inactive); in [15] it was 20.8 µM (inactive). The GI50 in assay [6] is 16.1 µM (inactive); in [7], 17.1 µM (inactive); in assay [8], 13.4 µM (inactive); in [9], 18.6 µM (inactive); in assay [16], 18.9 µM (inactive); in assay [10] it was 21.5 µM (inactive). Further, the GI50 in assay [11] was 14.9 µM (inactive); in assay [17], 20.9 µM (inactive); in assay [18] it was 19 µM (inactive); in assay [12], 13.9 µM (inactive); in assay [14] it was 22.5 µM (inactive); in assay [20] it was 15 µM (inactive).
For `S=C(N/N=C(/c1ccccc1)c1ccccn1)Nc1cccc(Cl)c1`, the GI50 is < 0.0258 µM (active) in [1]; 0.839 µM (active) in assay [2]; < 0.0297 µM (active) in assay [3]; 0.566 µM (active) in [4]; 0.414 µM (active) in assay [5]; 0.169 µM (active) in assay [7]. The GI50 in assay [8] is 1.08 µM (active); in [9], 0.984 µM (active); in [16], 0.0454 µM (active); in assay [10], 1.01 µM (active); in assay [11] it was 0.215 µM (active); in [17], 0.394 µM (active). The GI50 in assay [18] was < 0.0385 µM (active); in assay [12] it was 1.04 µM (active); in assay [13], 0.201 µM (active); in assay [14] it was 1.27 µM (inactive); in [19], 0.185 µM (active); in [20], 0.422 µM (active).
Regarding `N=C(N)NS(=O)(=O)c1ccc(Nc2c3ccccc3nc3c(C(=O)N4CCN(CCO)CC4)ccc(Cl)c23)cc1`, the GI50 in [1], in assay [2], in assay [3], in [4], in assay [5] and in assay [15] was > 100 µM (inactive) throughout. The GI50 in assay [6], in [7], in assay [8], in assay [9], in assay [16] and in [10] was > 100 µM (inactive) throughout. Besides, the GI50 in assay [11], in assay [17], in assay [12], in assay [13], in assay [14] and in [19] was > 100 µM (inactive) each time. In addition, the GI50 in assay [20] was > 100 µM (inactive).
As to `Cc1cnc(SCCN2CCN(C)CC2)nc1-c1cc2ccccc2s1`, the GI50 in assay [1] is 3.18 µM (inactive); in assay [2], 16.1 µM (inactive); in assay [3], 2.52 µM (inactive); in assay [4] it was 7.78 µM (inactive); in assay [5], 16.3 µM (inactive); in [15] it was > 10 µM (inactive). In addition, the GI50 was 6.03 µM (inactive) in assay [6]; 8.36 µM (inactive) in assay [7]; 10.1 µM (inactive) in assay [8]; > 10 µM (inactive) in [9]; 12.6 µM (inactive) in assay [16]; 16.2 µM (inactive) in [10]. Besides, the GI50 is 3.77 µM (inactive) in assay [11]; 9.02 µM (inactive) in assay [17]; 11.9 µM (inactive) in assay [18]; 16.3 µM (inactive) in assay [12]; 16.2 µM (inactive) in assay [13]; 0.155 µM (active) in assay [14]. In addition, the GI50 in [19] is 3.46 µM (inactive); in assay [20], 9.14 µM (inactive).
Turning to `O=C(N/N=C\C(F)(F)F)c1ccncc1`, the GI50 in assay [1] is 3.48 µM (inactive); in assay [2], > 100 µM (inactive); in assay [3] it was 21.4 µM (inactive); in [4], 83.6 µM (inactive); in assay [5], 8.09 µM (inactive); in assay [15] it was 35.2 µM (inactive). For the same molecule, the GI50 in assay [6] is 7.59 µM (inactive); in assay [7], 26.9 µM (inactive); in assay [8] it was 13.9 µM (inactive); in assay [9], > 100 µM (inactive); in assay [16], 48.2 µM (inactive); in assay [10], 80.7 µM (inactive). In addition, the GI50 is 31.6 µM (inactive) in assay [11]; 92.3 µM (inactive) in assay [17]; 37.8 µM (inactive) in assay [18]; 8.36 µM (inactive) in assay [12]; 37.2 µM (inactive) in assay [13]; 24.7 µM (inactive) in assay [14]. For the same molecule, the GI50 is 20.5 µM (inactive) in assay [19] and 30.5 µM (inactive) in [20].
Turning to `CCN(CC)c1ccc2cc(C(=O)Nc3ccc4[nH]c(C(=O)N5C[C@@H](CCl)c6c5cc(OC(=O)Nc5ccccc5)c5[nH]cc(C)c65)cc4c3)oc2c1` [CARZELESIN], the GI50 is 0.000168 µM (active) in [1]; 0.000601 µM (active) in assay [2]; 0.000343 µM (active) in assay [3]; 668 µM (inactive) in assay [4]; 678 µM (inactive) in assay [5]; 0.000506 µM (active) in assay [15]. The GI50 is > 1000 µM (inactive) in assay [6]; 0.000201 µM (active) in assay [8]; 0.000601 µM (active) in [9]; 234 µM (inactive) in assay [16]; 0.000479 µM (active) in assay [10]; 0.00042 µM (active) in assay [11]. Besides, the GI50 is 552 µM (inactive) in [17]; 0.000321 µM (active) in assay [18]; 0.000311 µM (active) in [12]; 4.61e-05 µM (active) in assay [13]; 0.000171 µM (active) in [14]; 306 µM (inactive) in [19].
